Literature values as cited in patent publication US5702721A (LTS Lohmann Therapie-Systeme GmbH & Co. KG, priority 1989, dated 1997).

Settings: supersaturated solution resulting on evaporation of the highly volatile component of a mixture of volatile and non-volatile solvents

| SMILES | skin penetration / resorption intensification |
| --- | --- |
| COC(=O)C1=C(C)NC(C)=C(C(=O)OC)C1c1ccccc1[N+](=O)[O-] [nifedipine] | confirmed these effects |
| C[C@]12C=CC(=O)C=C1[C@@H](F)C[C@H]1[C@@H]3C[C@@H](O)[C@](O)(C(=O)CO)[C@@]3(C)C[C@H](O)[C@@]12F [fluocinolone] | higher skin penetration |
